From the NIST ThermoML archive (doi:10.1021/je7003066)
Numbers after ± are expanded uncertainties.

Experiments:
[1] = 101.33 kPa, Liquid; for viscosity: Capillary tube (Ostwald / Ubbelohde) method
[2] = molar heat capacity at constant pressure; conditions: 101.33 kPa, Liquid, Small sample (50 mg) DSC
[3] = refractive index (Na D-line) (dimensionless); conditions: 101.33 kPa, Liquid, Standard Abbe refractometry

CC1CCCO1 (configuration not stated) [2-methyltetrahydrofuran]
Conditions | mass density, [1] [kg/m3] | molar heat capacity at constant pressure, [2] [J/K/mol] | refractive index, [3] | viscosity, [1] [mPa·s]
293.15 K | 852.95 ± 0.68 | 155.3 ± 3.1 | 1.4085 ± 0.0008 | 0.492 ± 0.04
303.15 K | 842.8 ± 0.7 | 158.6 ± 3.2 | 1.4017 ± 0.0007 | 0.443 ± 0.04
313.15 K | 832.38 ± 0.72 | 162.1 ± 3.2 | 1.3959 ± 0.0007 | 0.416 ± 0.04
